# Measured values from a melting point compilation (Tetko et al.; mined from patent text by program, amines drawn as free bases though some values may be those of a salt).
row,melting point,SMILES
1,118 to 120 °C,C=CCN1CCc2c(sc(N)c2C(=O)c2ccc(Cl)cc2)C1
2,69 to 71 °C,CCCCCCCN1C(=O)C2CC(c3ccc(N)cc3)(C2)C1=O
3,127 to 128 °C,COc1cccc(CC(=O)O)c1OCCCc1cn(-c2cc(C(F)(F)F)ccn2)nc1C(C)C
4,196 °C,COC(=O)c1ccccc1S(=O)(=O)NC(=O)Nc1nc(N(C)C)c2nc(C)c(C)nc2n1
5,222 to 223 °C,CN(Cc1ccccc1)Cc1c(-c2ccc(NC(=O)C(C)(C)O)cc2)sc2c1c(=O)c(C(=O)c1ccccc1)cn2Cc1c(F)cccc1F
6,169 to 170 °C,Clc1cnc2c(NCc3ccccc3)nc(Cl)nc2c1
7,159 °C,CCOC(=O)C1=C(N)N=C(OCC)C(C(=O)OCC)C1c1cccc(C#N)c1 (centres undefined)
8,200 to 202 °C,CCOC(=O)c1cc2c(C(F)(F)F)cc(OCC(=O)O)cc2n1C
9,302 to 303 °C,COc1ccc(Cl)cc1-c1c(Sc2ncccn2)c(=O)[nH]c2ccc(C(F)(F)F)cc12
10,172 to 174 °C,COc1cc2c(cc1OC)C1CCC(O)CC1N=C2c1ccc(OCC2CC2)c(OCC2CC2)c1 (centres undefined)
11,255 to 256 °C,CN(c1ccc(Cl)cc1)c1nc(=O)c2ccncc2s1
12,191 to 192 °C,CC(C)N(C(=O)c1ccc(CN2CCOc3cnccc32)c(Br)c1)C1CCCCC1
13,168 °C,CCCN1CCC=C(c2cccc3[nH]ccc23)C1
14,104 to 112 °C,CCOc1cc2c(cc1OC)C(c1ccc(C(=O)N(C(C)C)[C@@H](C)CO)cc1)=N[C@@H]1CCN(C)C[C@H]21
15,248 to 249 °C,O=S(=O)(Nc1cccc(Cl)c1)c1ccc(Nc2nc(OCC3CCCCC3)c3nc[nH]c3n2)cc1
16,184 to 186 °C,CN(C)C(=O)c1ccc(Nc2nc(OCC3CCCCC3)c3nc[nH]c3n2)cc1
17,146 to 147 °C,O=c1ccoc2c1ccc1ncccc12
18,96.5 to 98.5 °C,CCC1(OC)CCc2c(C)c(O)c(C)c(C)c2O1 (centres undefined)

row,melting point,SMILES
1,261 to 262 °C,CCCOc1ccccc1-c1nc2nc(N)ncc2c(=O)[nH]1
2,192 to 194 °C,O=C(O)c1cc(=O)c2cc(OC(F)(F)F)ccc2o1
3,124 to 128 °C,CCOC(=O)C(C)Cc1ccc(-n2c(C)nn(-c3ccc(C#N)cc3)c2=O)cc1 (centres undefined)
4,193 to 194 °C,COC(=O)c1ccc(N=C2NCCN2)c(C)c1
5,96 to 97 °C,CC(C)(C)OC(=O)C=Cc1ccc2ccccc2n1
6,278 to 280 °C,COc1ccccc1-n1cnc2c(C(N)=O)nc(-c3ccccc3O)nc21
7,217 to 220 °C,CC(C)(C)c1cc(-c2ccc(NC(=O)[C@H]3CCCC[C@H]3C(=O)O)cc2)cc(C(C)(C)C)c1O (relative stereo)
8,122 to 124 °C,COC(=O)CNC(=O)c1cccc(NC(=O)CCl)c1
9,115 to 117 °C,[N-]=[N+]=Nc1nc(-c2ccccc2)nc(-c2ccccc2)n1
10,108 to 116 °C,COc1ccc(-c2cc(COS(C)(=O)=O)c(=O)n(CC3CCCC3)n2)cc1F
11,122 to 125 °C,COc1cc2oc(=O)c3c(c2cc1OC)CCN(CCN1CC2CCCC(C2)C1)C3
12,50 to 51 °C,CCN(CC)C(=O)c1cccc(F)c1[Si](C)(C)C(C)(C)C
13,191 to 194 °C,CCS(=O)(=O)N(c1cc(-c2ncnc(C(F)(F)F)c2Cl)c(F)cc1C#N)S(=O)(=O)CC
14,35.5 to 36 °C,FC(F)(F)c1csc(I)n1
15,165 °C,Nc1ccc2ccc(Oc3cccc(F)c3)nc2n1
16,101 to 103 °C,CC1(C)CC(=O)C(C(=O)NS(=O)(=O)c2ccccc2)C(=O)C1
17,> 260 °C,Cc1ccc(C)n1C1=CC2=C(CC1)CCc1[nH]c(=O)c(=O)n(OCC(=O)O)c12
18,146 to 147 °C,Cc1nc(-c2cccc(Cl)c2)n(-c2ccc(S(N)(=O)=O)cc2)n1

row,SMILES,melting point
1,O=C1OC(CN2CCC(n3c(=O)[nH]c4ccccc43)CC2)CN1c1ccccc1 (centres undefined),210 to 212 °C
2,On1nnc2cccnc21,216 to 217 °C
3,Cc1cccc(C)c1NC1=NCCN1,155 to 156 °C
